Laboratory results taken from patent US20160222014A1, “COMPOUNDS FOR REGULATING FAK AND/OR SRC PATHWAYS” (ASANA BIOSCIENCES, LLC, priority 2013, published 2016).

What was measured:
Format in all cases: biochemical
AURKB (Aurora B) enzyme = target: T1, AURKB (Aurora B) enzyme (Homo sapiens, UniProt Q96GD4); assay: Aurora B HTRF assay; conditions: read-out: AuroraB IC50
T1 construct: purchased Invitrogen PVR 130
Protocol: AURKB (Aurora B) enzyme was obtained (Invitrogen, Cat No. PVR 130, Lot No. 857013J). A 8.64 μM stock was used at a final concentration 5 nM in the assay.
Lance@Ultera Ulight-PLK (Ser137) peptide substrate
Peptide substrate was obtained from Perkin Elmer (Lot#1629793, TRF0110-M). A 5 μM stock was used at a final concentration of 50 nM in the assay.
10 mM stock prepared freshly as above, used at a final concentration of 30 μM in assay.
The plate was covered with aluminum foil, put on a shaker and incubated 1 h at rt.
Reference: Pfizer aurora inhibitor PF-03814735 was procured from Selleckchem: Cat# S2725
Using stock Lance detection buffer, 1× Lance detection buffer was prepared. • 1. 10× lance detection buffer was diluted to 1×, mixed well and 100 μL was removed, and was used to substitute with antibody and EDTA (for a total of 2200 μL). • 2. 88 μL of […] EDTA was added from 500 mM stock. • 3. 14 μL Europium labeled antibody (LANCE@ Ultra EU-Anti-P-PLK(Ser 137), TRF0203-D, Lot No. 1630351, Perkin Elmer) was added from 625 nM stock; required concentration was 2 nM in the assay. • 4. The buffer well was mixed and 20 μL was transferred to the each well in the assay plate. • 5. The solutions were incubated for 1 h at rt. • 6. The plate was read using MET-HTRF® protocol using Pherastar equipment.

Recombinant Src enzyme = target: T2, Recombinant Src enzyme (Homo sapiens, UniProt P12931); assay: Src HTRF assay
T2 construct: purchased Millipore 14-326; host or cells: Sf21 insect cells
T2 sequence (P12931 whole entry): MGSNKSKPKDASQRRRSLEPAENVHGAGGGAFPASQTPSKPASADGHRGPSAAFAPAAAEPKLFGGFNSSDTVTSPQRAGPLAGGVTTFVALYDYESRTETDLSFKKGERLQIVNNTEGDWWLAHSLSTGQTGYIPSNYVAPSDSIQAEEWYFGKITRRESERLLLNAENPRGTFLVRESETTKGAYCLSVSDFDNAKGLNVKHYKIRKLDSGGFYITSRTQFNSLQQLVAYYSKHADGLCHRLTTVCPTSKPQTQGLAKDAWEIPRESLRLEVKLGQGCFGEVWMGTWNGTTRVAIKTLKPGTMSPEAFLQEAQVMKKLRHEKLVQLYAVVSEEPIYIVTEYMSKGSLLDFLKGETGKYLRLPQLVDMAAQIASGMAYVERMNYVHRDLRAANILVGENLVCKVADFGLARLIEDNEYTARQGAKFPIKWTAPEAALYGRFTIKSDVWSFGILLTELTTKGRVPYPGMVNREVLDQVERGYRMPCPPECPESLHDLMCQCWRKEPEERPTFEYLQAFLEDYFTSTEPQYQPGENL
Protocol: Enzyme assay buffer, supplements, and compounds were prepared as described in the FAK HTRF assay.
Recombinant Src enzyme expressed in Sf21 insect cells was obtained (Millipore, Cat No. 14-326, Lot # D8CN006U-K). A 35 μM stock was used at a final concentration of 5 nM in the assay.
Tyk2 synthetic peptide-Biotinylated-N-terminal tag-[…]
A custom made substrate, a Tyk2 synthetic peptide, biotinylated with an N-terminal tag was obtained (Biopeptide and Sigma, Cat. No. 14918001 VC80021). A 100 μM stock was used at a final concentration of 0.5 μM in the assay.
A 10 mM stock in 100 μL enzyme assay buffer pH7.4 was prepared freshly and used at a final concentration of 10 μM in the assay.
Dasatinib (Bristol-Myers Squibb)
The assay procedure was the same as discussed above.

recombinant human FAK1 = target: T3, recombinant human FAK1 (Homo sapiens, UniProt Q05397); assay: FAK1 HTRF assay
T3 construct: fused on or other part: N-terminal 6xHis tag
T3 sequence (Q05397 422-680 limits assumed): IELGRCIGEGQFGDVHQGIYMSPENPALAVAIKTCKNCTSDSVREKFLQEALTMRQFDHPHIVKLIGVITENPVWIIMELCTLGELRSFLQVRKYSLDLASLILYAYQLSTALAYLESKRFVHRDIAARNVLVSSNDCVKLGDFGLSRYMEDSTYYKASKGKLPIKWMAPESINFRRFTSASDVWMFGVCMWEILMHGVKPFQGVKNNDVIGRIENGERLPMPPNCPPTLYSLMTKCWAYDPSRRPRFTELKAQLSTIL
Method in brief: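 His-tagged human FAK1 (residues 692–end, Sf9-expressed), 10 nM final, with 0.5 μM biotinylated gastrin-precursor Tyr87 peptide and a 10 μM final reagent in pH 7.4 buffer, 45 min at rt. Detection used Eu anti-pTyr antibody plus SA-APC (665/620 nm). Compounds top concentration 10 μM; IC50 from % inhibition.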

T1 sequence (Q96GD4 whole entry): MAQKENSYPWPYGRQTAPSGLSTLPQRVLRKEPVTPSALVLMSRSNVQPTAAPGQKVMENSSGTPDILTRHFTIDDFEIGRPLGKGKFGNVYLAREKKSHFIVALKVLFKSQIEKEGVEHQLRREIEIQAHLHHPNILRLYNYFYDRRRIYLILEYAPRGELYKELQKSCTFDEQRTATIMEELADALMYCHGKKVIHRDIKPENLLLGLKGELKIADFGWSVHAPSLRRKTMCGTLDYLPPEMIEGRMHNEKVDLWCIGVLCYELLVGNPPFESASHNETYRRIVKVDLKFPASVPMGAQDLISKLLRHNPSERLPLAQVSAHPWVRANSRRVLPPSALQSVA

| IC50 (AURKB (Aurora B) enzyme) | IC50 (Recombinant Src enzyme) | IC50 (recombinant human FAK1) | SMILES |
| --- | --- | --- | --- |
| > 1000 nM | > 1000 nM |  | FC(F)Oc1ccccc1Cn1ccc2cnc(Nc3ccc4ncsc4c3)cc21 [Example 20] |
| < 20 nM | > 1000 nM |  | CN(c1cccc(Cn2ccc3cnc(Nc4ccc5c(c4)CCC(=O)N5)nc32)c1)S(C)(=O)=O [Example 50] |
| < 20 nM | > 1000 nM |  | CNS(=O)(=O)c1cccc(Cn2ccc3cnc(Nc4ccc5c(c4)CCC(=O)N5)nc32)c1 [Example 60] |
| > 1000 nM | > 1000 nM |  | CC(=O)Nc1cccc(Nc2cc3c(cn2)cnn3S(=O)(=O)c2ccccc2OC(F)(F)F)c1 [Example 86] |
| < 20 nM | > 1000 nM |  | Cc1nn(S(=O)(=O)c2ccccc2OC(F)(F)F)c2cc(Nc3ccc4c(c3)CCC(=O)N4)ncc12 [Example 90] |
| < 20 nM | > 1000 nM |  | O=c1[nH]c2ccc(Nc3ncc4ccn(S(=O)(=O)c5ccccc5OC(F)(F)F)c4n3)cc2[nH]1 [Example 93] |
| < 20 nM | > 1000 nM |  | CN(c1ncccc1Cn1ccc2cnc(Nc3ccc(N4CCNCC4=O)cc3)nc21)S(C)(=O)=O [Example 102] |
| < 20 nM | > 1000 nM |  | CN(c1ncccc1Cn1ccc2cnc(Nc3ccc(N4CCOCC4)cn3)nc21)S(C)(=O)=O [Example 107] |
| < 20 nM | > 1000 nM |  | CN(C)CCOc1cccc(Nc2cc3c(ccn3S(=O)(=O)c3ccccc3OC(F)(F)F)cn2)c1 [Example 126] |
| < 20 nM | < 20 nM | < 20 nM | CN1C(=O)CCc2cc(Nc3ncc4ccn(Cc5cccnc5N(C)S(C)(=O)=O)c4n3)ccc21 [Example 136] |
| < 20 nM | > 1000 nM |  | COc1cccc(Nc2ncc3ccn(S(=O)(=O)c4ccccc4C#N)c3n2)c1 [Example 178] |
| < 20 nM | < 20 nM | < 20 nM | Cc1cc(Nc2ncc3ccn(S(=O)(=O)c4cccc5cccnc45)c3n2)ccc1N1CCNCC1 [Example 196] |
| < 20 nM | < 20 nM | < 20 nM | Cc1cc(Nc2ncc3ccn(S(=O)(=O)c4ccccc4C#N)c3n2)ccc1N1CCNCC1 [Example 212] |
| < 20 nM | < 20 nM | < 20 nM | O=S(=O)(c1cccc2ccccc12)n1ccc2cnc(Nc3ccc(N4CCNCC4)cc3)nc21 [Example 219] |
| < 20 nM | > 1000 nM |  | CC(=O)Nc1ccc(Nc2cc3c(cn2)cnn3S(=O)(=O)c2cccc3cccnc23)cc1 [Example 315] |
| < 20 nM | > 1000 nM | < 20 nM | COc1ccccc1S(=O)(=O)n1ccc2cnc(Nc3ccc(N4CCNCC4)cc3)cc21 [Example 343] |
| < 20 nM | > 1000 nM | < 20 nM | O=S(=O)(c1cccc2cccnc12)n1ncc2cnc(Nc3ccc(N4CCC(O)CC4)cc3)cc21 [Example 345] |
| > 1000 nM | > 1000 nM |  | COc1cc(N2CCNCC2)ccc1Nc1cc2c(ccn2Cc2cccnc2N(C)S(C)(=O)=O)cn1 [Example 366] |
| < 20 nM | > 1000 nM |  | O=S(=O)(c1cccc2cccnc12)n1ncc2cnc(Nc3ccc(N4CC5CC4CN5)cc3)cc21 (centres unmarked) [Example 383] |

| IC50 (AURKB (Aurora B) enzyme) | IC50 (Recombinant Src enzyme) | IC50 (recombinant human FAK1) | SMILES |
| --- | --- | --- | --- |
| < 20 nM | > 1000 nM | < 20 nM | COc1cc(N2CCOCC2)ccc1Nc1cc2c(ccn2S(=O)(=O)c2cccc3cccnc23)cn1 [Example 401] |
| < 20 nM | < 20 nM | < 20 nM | COc1cc(Nc2ncc3ccn(Cc4ccccc4N(C)S(C)(=O)=O)c3n2)ccc1N1CCN(C)CC1 [Example 429] |
| > 1000 nM | > 1000 nM | > 1000 nM | CN(c1ncccc1CN1CC(C)(C)c2cnc(Nc3ccc(N4CCNCC4)cc3)nc21)S(C)(=O)=O [Example 437] |
| > 1000 nM | > 1000 nM | < 20 nM | COc1cc(N2CCN(C)CC2)ccc1Nc1ncc2c(n1)N(S(=O)(=O)c1cccc3cccnc13)CC2(C)C [Example 504] |
| > 1000 nM | > 1000 nM |  | O=S(=O)(c1cc(Cl)ccc1Cl)N1CC2(CC2)c2cnc(Nc3ccc(N4CCNCC4)cc3)nc21 [Example 510] |
| > 1000 nM | > 1000 nM | > 1000 nM | CN(c1ccccc1C(=O)N1CC(C)(C)c2cnc(Nc3ccc(N4CCNCC4)cc3)nc21)S(C)(=O)=O [Example 528] |
| > 1000 nM | > 1000 nM |  | CC1(C)CN(S(=O)(=O)c2ccccc2C#N)c2cc(Nc3ccc(N4CCNCC4)cc3)ncc21 [Example 532] |
| > 1000 nM | > 1000 nM | > 1000 nM | CS(=O)(=O)N(CCN)c1ccccc1Cn1ccc2cnc(Nc3ccc(N4CCNCC4)cc3)nc21 [Example 558] |
| > 1000 nM | > 1000 nM |  | COc1cc(N2CCC(N(C)C)CC2)ccc1Nc1ncc2ccn(Cc3ccccc3N(C)S(C)(=O)=O)c2n1 [Example 628] |
| > 1000 nM | > 1000 nM |  | COc1cc(N2CCN[C@@H](C)C2)ccc1Nc1ncc2ccn(Cc3cccnc3N(C)S(C)(=O)=O)c2n1 [Example 629] |
| > 1000 nM | > 1000 nM |  | COc1cc(N2CCC(N(C)C)CC2)ccc1Nc1ncc2ccn(Cc3cccnc3N(C)S(C)(=O)=O)c2n1 [Example 634] |
| > 1000 nM | > 1000 nM | < 20 nM | COc1cc(N2CCNCC2)ccc1Nc1cc2c(cn1)C(C)(C)CN2S(=O)(=O)c1cccc2cccnc12 [Example 635] |
|  | > 1000 nM | > 1000 nM | CN(c1ncccc1Cn1cc(C#N)c2cnc(Nc3ccc(N4CCNCC4)cc3)nc21)S(C)(=O)=O [Example 732] |
|  | > 1000 nM | > 1000 nM | CN(c1ncccc1Cn1cc(C(N)=O)c2cnc(Nc3ccc(N4CCNCC4)cc3)nc21)S(C)(=O)=O [Example 734] |
|  | > 1000 nM | > 1000 nM | CN(C)C1CCN(c2ccc(Nc3ncc4c(n3)N(c3ccccc3NS(C)(=O)=O)CC4(C)C)cc2)CC1 [Example 784] |
|  | > 1000 nM | > 1000 nM | CN(C)C1CCN(c2ccc(Nc3nc4c(ccn4Cc4cccnc4N(C)S(C)(=O)=O)cc3C#N)cc2)CC1 [Example 785] |
|  | > 1000 nM | < 20 nM | Cc1ccc(N(C)S(C)(=O)=O)c(Cn2ccc3cnc(Nc4ccc5c(c4)CC(=O)N5)nc32)c1 [Example 786] |
|  | > 1000 nM | > 1000 nM | CC(=O)N(C)c1ccccc1Cn1ccc2cnc(Nc3ccc(N4CCN[C@H](C)C4)cc3)nc21 [Example 787] |
|  | > 1000 nM | > 1000 nM | CC(=O)N(C)c1ccccc1Cn1ccc2cnc(Nc3ccc(N4CCC(N(C)C)CC4)cc3)nc21 [Example 788] |
